In one assay the test system is Bacillus subtilis. The assay can be described thus: Antibacterial activity against Bacillus subtilis. Type of assay: functional.
The test system of a further assay is TCT1. Description: (§1) Cytotoxicity against human TCT1 cells after 48 hrs by calcein-AM dye based fluorescence assay. It counts as functional, cell-based.
The nature of assay [1]: as §1. Type of assay: functional, cell-based. As to conditions: TCT1, 48 h.

Values after ≈ are worked out from the molar mass of the structure shown. Active and inactive are the calls of the source. The calls are words filed in the database; no cut-off is given here.

`CCC[C@H]1O[C@H](C(O)C(N)=O)C[C@]23O[C@]12C(=O)c1c(O)cc(OC)cc1C3=O` (stereo partly drawn) came in with an MIC in the assay with Bacillus subtilis of 7 µg/mL (≈ 17.9 µM). The outcome in the assay on TCT1 was inactive.
Take `COC(=O)CC1CC2(SC34CC(CCO)OC(C)C3(O)C(=O)c3c(O)cccc3C4=O)C(=O)c3cccc(O)c3C(=O)C2(O)C(C)O1` (stereo not drawn): in assay [1], the IC50 was 6.4 µM.
As for `COC(=O)CC1CC2(SC34CC(CC(=O)OC)OC(C)C3(O)C(=O)c3c(O)cccc3C4=O)C(=O)c3cccc(O)c3C(=O)C2(O)C(C)O1` (stereo not drawn), the concentration for half-maximal inhibition (IC50) in assay [1] is 6.4 µM.
As for GENTAMICIN, the MIC against Bacillus subtilis came out at 0.125 µg/mL.
On to `CCC[C@H]1O[C@H](CC(N)=O)C[C@]2(S[C@]34C[C@@H](CC(N)=O)O[C@H](CCC)[C@]3(O)C(=O)c3c(O)cc(OC)cc3C4=O)C(=O)c3cc(OC)cc(O)c3C(=O)[C@@]12O`, for which the MIC result in the assay on Bacillus subtilis is “inactive”. Besides, in the assay with TCT1, the Cytotoxicity entry was “Active”.
Turning to `CC[C@H]1OC(=O)[C@H](C)[C@@H](O[C@H]2C[C@@](C)(OC)[C@@H](O)[C@H](C)O2)[C@H](C)[C@@H](O[C@@H]2O[C@H](C)C[C@H](N(C)C)[C@H]2O)[C@](C)(O)C[C@@H](C)C(=O)[C@H](C)[C@@H](O)[C@]1(C)O` [ERYTHROMYCIN], inhibition of growth in the assay on Bacillus subtilis (MIC) required 0.125 µg/mL (≈ 0.17 µM).
In the assay with Bacillus subtilis, `CCC[C@H]1O[C@H](CC(N)=O)C[C@]2(O)C(=O)c3cc(OC)cc(O)c3C(=O)[C@@]12O` had an MIC of 28 µg/mL (≈ 71.2 µM). The result in the assay on TCT1 was inactive.
As for `CC(=O)O[C@H]1C(=O)[C@@]2(C)[C@H]([C@H](OC(=O)c3ccccc3)[C@]3(O)C[C@H](OC(=O)[C@H](O)[C@@H](NC(=O)c4ccccc4)c4ccccc4)C(C)=C1C3(C)C)[C@]1(OC(C)=O)CO[C@@H]1C[C@@H]2O` [PACLITAXEL], the IC50 in assay [1] was 0.0025 µM.
Consider `CCC[C@H]1O[C@H](CC(N)=O)C[C@]23O[C@]12C(=O)c1c(O)cc(OC)cc1C3=O`, for which the MIC in the assay with Bacillus subtilis was determined as 7 µg/mL (≈ 18.6 µM). For the same compound, the outcome with TCT1 was inactive.

For orientation: MIC means the lowest concentration that inhibits growth of the organism. Broadly, the IC50 is the concentration at which inhibition is half-maximal.

These data come from ChEMBL document CHEMBL3352805, “Structure and Stereochemical Determination of Hypogeamicins from a Cave-Derived Actinomycete” (J Nat Prod, 2014).
